The source of these data is patent EP0672658B1, “Antithrombotic agents” (priority 1994, dated 1995).

Structures can show the parent of a compound that is named as a salt.

The test system of experiment [1] is human or animal plasma. Description: Anticoagulation determination in plasma: activated partial thromboplastin time (APTT). In kind it is biochemical. Conditions: concentration doubling activated partial thromboplastin time. The method, then: (§1) Dog plasma and rat plasma is obtained from conscious mixed-breed hounds (either sex, Hazelton-LRE, Kalamazoo, Michigan, U.S.A.) or from anesthetized male Sprague-Dawley rats (Harlan Sprague-Dawley, Inc., Indianapolis, Indiana, U.S.A.) by venipuncture into 3.8 percent citrate. Fibrinogen is prepared from in-date ACD human blood as the fraction I-2 according to previous procedures and specifications. Smith, Biochem. J., 185, 1-11 (1980); and Smith, et al., Biochemistry, 11, 2958-2967 (1972). Human fibrinogen is also purchased as 98 percent pure/plasmin free from American Diagnostica, Greenwich, Connecticut. Coagulation reagents ACTIN, Thromboplastin, and Human plasma are from Baxter Healthcare Corp., Dade Division, Miami, Florida. Bovine thrombin from Parke-Davis (Ann Detroit, Michigan) is used for coagulation assays in plasma.
(§2) Coagulation assay procedures are as previously described. Smith, et al., Thrombosis Research, 50, 163-174 (1988). A CoAScreener coagulation instrument (American LABor, Inc.) is used for all coagulation assay measurements. The prothrombin time (PT) is measured by adding 0.05 mL saline and 0.05 mL Thromboplastin-C reagent to 0.05 mL test plasma. The activated partial thromboplastin time (APTT) is measured by incubation of 0.05 mL test plasma with 0.05 mL Actin reagent for 120 seconds followed by 0.05 mL CaCl2 (0.02 M). The thrombin time (TT) is measured by adding 0.05 mL saline and 0.05 mL thrombin (10 NIH units/mL) to 0.05 mL test plasma. The compounds of Formula I are added to human or animal plasma over a wide range of concentrations to determine prolongation effects on the APTT, PT, and TT assays. Linear extrapolations are performed to estimate the concentrations required to double the clotting time for each assay.

For another experiment, the target named is factor Xa (Homo sapiens, UniProt P00742). Description: biochemical. Conditions: read-out: Kass Xa (converted). The method, then: (§3) By substantially following the procedures described above for human thrombin, and using other human blood coagulation system serine proteases and proteases of the fibrinolytic system with the appropriate chromogenic substrates, identified below, selectivity of the compounds of the present invention with respect to the coagulation factor serine proteases and with respect to the fibrinolytic system serine proteases are evaluated as well as their substantial lack of interference with serine proteases of the fibrinolytic system. Thrombin inhibitors preferably should spare fibrinolysis induced by urokinase, tissue plasminogen activator (t-PA) and streptokinase. This would be important to the therapeutic use of such agents as an adjunct to streptokinase, t-PA or urokinase thrombolytic therapy and to the use of such agents as an endogenous fibrinolysis-sparing (with respect to t-PA and urokinase) antithrombotic agent. In addition to the lack of interference with the amidase activity of the fibrinolytic proteases, such fibrinolytic system sparing can be studied by the use of human plasma clots and their lysis by the respective fibrinolytic plasminogen activators.
(§4) Human factors X, Xa, IXa, XIa, and XIIa are purchased from Enzyme Research Laboratories, South Bend, Indiana; human urokinase from Leo Pharmaceuticals, Denmark; and recombinant activated Protein C (aPC) is prepared at Eli Lilly and Co. substantially according to U.S. Patent 4,981,952. Chromogenic substrates: N-Benzoyl-Ile-Glu-Gly-Arg-p-nitroanilide (for factor Xa); N-Cbz-D-Arg-Gly-Arg-p-nitroanilide (for factor IXa assay as the factor Xa substrate); Pyroglutamyl-Pro-Arg-p-nitroanilide (for Factor XIa and for aPC); H-D-Pro-Phe-Arg-p-nitroanilide (for factor XIIa); and Pyroglutamyl-Gly-Arg-p-nitroanilide (for urokinase); are purchased from KabiVitrum, Stockholm, Sweden, or from Midwest Biotech, Fishers, Indiana. Bovine trypsin is purchased from Worthington Biochemicals, Freehold, New Jersey, and human plasma kallikrein from Kabi Vitrum, Stockholm, Sweden. Chromogenic substrate H-D-Pro-Phe-Arg-p-nitroanilide for plasma kallikrein is purchased from Kabi Vitrum, Stockholm, Sweden. N-Benzoyl-Phe-Val-Arg-p-nitroanilide, the substrate for human thrombin and for trypsin, is synthesized according to procedures described above for the compounds of the present invention, using known methods of peptide coupling from commercially available reactants or purchased from Midwest Biotech, Fishers, Indiana.

For experiment [2], the system named is human or animal plasma. Description: Anticoagulation determination in plasma: thrombin time (TT). In kind it is biochemical. Conditions: concentration doubling thrombin time. The procedure: as §1, §2
Another experiment addresses T1, Trypsin (Bos taurus, UniProt P00760).
T1 sequence (P00760 24-246): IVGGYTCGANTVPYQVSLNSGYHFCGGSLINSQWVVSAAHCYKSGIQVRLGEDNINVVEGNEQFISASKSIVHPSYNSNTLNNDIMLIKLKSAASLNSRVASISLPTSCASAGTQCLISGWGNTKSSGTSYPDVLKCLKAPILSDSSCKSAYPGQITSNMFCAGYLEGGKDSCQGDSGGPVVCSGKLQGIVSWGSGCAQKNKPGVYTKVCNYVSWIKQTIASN
Description: biochemical. Also on record: species or system Bovine. Conditions: read-out: Kass Trypsin (converted). The method, then:
as §3, §4

Experiment [3] concerns human or animal plasma. Description: Anticoagulation determination in plasma: prothrombin time (PT). In kind it is biochemical. Conditions: concentration doubling prothrombin time. The method, then:
as §1, §2

The next experiment concerns the target T2, Plasmin (Homo sapiens, UniProt P00747).
T2 construct: Human plasmin is purchased; purchased Boehringer Mannheim, Indianapolis, Indiana
Description: biochemical. Conditions: read-out: Kass Plasmin (converted). The procedure:
as §3
Human plasmin is purchased from Boehringer Mannheim, Indianapolis, Indiana; nt-PA is purchased as single chain activity reference from American Diagnostica, Greenwich, Connecticut; modified-t-PA6 (mt-PA6) is prepared at Eli Lilly and Company by procedure known in the art (See, Burck, et al., J. Biol. Chem., 265, […] (1990). Plasmin chromogenic substrate H-D-Val-Leu-Lys-p-nitroanilide and tissue plasminogen activator (t-PA) substrate H-D-Ile-Pro-Arg-p-nitroanilide are purchased from Kabi Vitrum, Stockholm, Sweden.

The next experiment deals with Human Thrombin (Homo sapiens, UniProt P00734). Description: biochemical. Conditions: read-out: Kass Human Thrombin (converted).

Chain of factor Xa (P00742 235-488 limits assumed): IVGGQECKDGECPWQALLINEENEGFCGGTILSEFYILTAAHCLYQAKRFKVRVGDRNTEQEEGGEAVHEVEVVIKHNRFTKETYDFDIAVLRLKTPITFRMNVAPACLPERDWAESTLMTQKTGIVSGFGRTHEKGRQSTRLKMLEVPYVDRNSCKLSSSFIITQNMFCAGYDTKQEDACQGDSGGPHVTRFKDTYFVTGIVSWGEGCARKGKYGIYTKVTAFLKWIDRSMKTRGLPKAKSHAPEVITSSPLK
Chain of factor Xa (P00742 41-179 partner limits assumed): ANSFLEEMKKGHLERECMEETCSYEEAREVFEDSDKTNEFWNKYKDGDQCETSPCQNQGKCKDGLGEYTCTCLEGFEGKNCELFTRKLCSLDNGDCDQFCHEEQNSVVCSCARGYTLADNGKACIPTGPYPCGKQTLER
T2 sequence (P00747 581-810 limits assumed): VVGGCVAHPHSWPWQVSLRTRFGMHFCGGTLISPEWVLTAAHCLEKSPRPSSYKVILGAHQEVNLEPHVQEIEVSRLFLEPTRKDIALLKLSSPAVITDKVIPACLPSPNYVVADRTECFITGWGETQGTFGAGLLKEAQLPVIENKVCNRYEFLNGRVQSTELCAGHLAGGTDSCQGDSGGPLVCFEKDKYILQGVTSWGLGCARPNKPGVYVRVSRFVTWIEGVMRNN
T2 sequence (P00747 97-580 partner limits assumed): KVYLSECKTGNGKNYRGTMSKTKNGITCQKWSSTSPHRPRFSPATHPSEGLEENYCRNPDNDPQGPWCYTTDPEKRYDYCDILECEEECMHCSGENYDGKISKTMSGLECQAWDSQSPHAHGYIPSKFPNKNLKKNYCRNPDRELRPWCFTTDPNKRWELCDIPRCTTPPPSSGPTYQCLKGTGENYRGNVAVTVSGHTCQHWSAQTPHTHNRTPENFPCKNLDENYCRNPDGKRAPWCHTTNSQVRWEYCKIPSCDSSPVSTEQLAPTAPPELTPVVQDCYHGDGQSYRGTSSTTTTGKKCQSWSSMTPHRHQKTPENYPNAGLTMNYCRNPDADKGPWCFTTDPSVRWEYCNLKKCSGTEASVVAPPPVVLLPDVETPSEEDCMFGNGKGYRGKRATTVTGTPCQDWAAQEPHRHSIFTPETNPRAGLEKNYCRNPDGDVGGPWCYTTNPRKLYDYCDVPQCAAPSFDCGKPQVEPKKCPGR

Regarding `N=C(N)Nc1ccc(CNC(=O)[C@@H]2CCCN2C(=O)[C@@H]2NCC[C@@H]3CCCC[C@@H]32)cc1` [Example 38, D-1-Piq-Pro-p-NHCH2C6H4NHC(NH)NH2·2HCl], the “Human Plasma Anticoagulation 2x Clotting time (ng/mL) APTT” value in the experiment with human or animal plasma [1] was 6,100 ng/mL. For the same compound, the Kd at factor Xa is over 1000 µM; at Trypsin, 14.3 µM; at Plasmin it was over 1000 µM; on Human Thrombin it was 0.909 µM. Further, the “Human Plasma Anticoagulation 2x Clotting time (ng/mL) TT” value with human or animal plasma [2] was found to be 540 ng/mL. The “Human Plasma Anticoagulation 2x Clotting time (ng/mL) PT” value with human or animal plasma [3] was 11,100 ng/mL.
As to `CCS(=O)(=O)N[C@H](CC1CCCCC1)C(=O)N1CCC[C@H]1C(=O)NCc1ccc(C(=N)N)cc1` [Example 80, EtSO2-D-Cha-Pro-4-NHCH2C6H4C(NH)NH2·HCl], the “Human Plasma Anticoagulation 2x Clotting time (ng/mL) APTT” value in the experiment with human or animal plasma [1] worked out at 40 ng/mL. Moreover, in the experiment with human or animal plasma [2], the “Human Plasma Anticoagulation 2x Clotting time (ng/mL) TT” value was 4 ng/mL. For the same compound, the Kd at Trypsin is 0.0111 µM; at Human Thrombin, 0.000588 µM. Further, in the experiment on human or animal plasma [3], the “Human Plasma Anticoagulation 2x Clotting time (ng/mL) PT” value is given as 130 ng/mL.
On the same counts, the results for `CCS(=O)(=O)N[C@H](CC1CCCCC1)C(=O)N1CCC[C@H]1C(=O)NCc1ccc(CN)cc1` [Example 81, EtSO2-D-Cha-Pro-4-NHCH2C6H4CH2NH2·HCl] are 1,500 ng/mL, 110 ng/mL, 0.476 µM, 0.189 µM and 2,700 ng/mL.
With `CCS(=O)(=O)N[C@H](CC1CCCCC1)C(=O)N1CCC[C@H]1C(=O)NCc1ccnc(N)c1` [Example 83, EtSO2-D-Cha-Pro-4-NHCH2-2-aminopyridine·HCl], in the experiment on human or animal plasma [1], the “Human Plasma Anticoagulation 2x Clotting time (ng/mL) APTT” value is 1,000 ng/mL. In the experiment with human or animal plasma [2], the “Human Plasma Anticoagulation 2x Clotting time (ng/mL) TT” value is listed as 91 ng/mL. Further, the Kd is 33.3 µM at Trypsin and 0.417 µM on Human Thrombin. Besides, the “Human Plasma Anticoagulation 2x Clotting time (ng/mL) PT” value with human or animal plasma [3] is given as 1,300 ng/mL.
On the same counts, the results for `CCS(=O)(=O)N[C@H](CC1CCCCC1)C(=O)N1CCC[C@H]1C(=O)NCc1ccc(N)nc1` [Example 84, EtSO2-D-Cha-Pro-5-NHCH2-2-aminopyridine·HCl] are 1,500 ng/mL, 110 ng/mL, 14.3 µM, 0.345 µM and 1,900 ng/mL.
On the same counts, the results for `N=C(N)c1ccc(CNC(=O)[C@@H]2CCCN2C(=O)[C@@H](CC2CCCCC2)NCCCC(=O)O)cc1` [Example 85, HOOCCH2CH2CH2-D-Cha-Pro-p-NHCH2C6H4C(NH)NH2·HCl] are 100 ng/mL, 4.9 ng/mL, 0.0325 µM, 0.00377 µM and 197 ng/mL.
On to `N=C(N)c1ccc(CNC(=O)[C@@H]2CCCN2C(=O)[C@H](NCC(=O)O)C2CCCCC2)cc1` [Example 86, HOOCCH2-D-Chg-Pro-p-NHCH2C6H4C(NH)NH2·HCl], for which the “Human Plasma Anticoagulation 2x Clotting time (ng/mL) APTT” value in the experiment on human or animal plasma [1] is 81 ng/mL. Moreover, the values for the Kd on factor Xa and on Human Thrombin were 1.59 µM and 0.005 µM, respectively. In addition, the “Human Plasma Anticoagulation 2x Clotting time (ng/mL) TT” value in the experiment on human or animal plasma [2] amounted to 4 ng/mL. Also, the “Human Plasma Anticoagulation 2x Clotting time (ng/mL) PT” value in the experiment on human or animal plasma [3] is 180 ng/mL.
For the compound `N=C(N)c1ccc(CNC(=O)[C@@H]2CCCN2C(=O)[C@@H](CCc2ccccc2)NCC(=O)O)cc1` [Example 87, HOOCCH2-D-hPhe-Pro-p-NHCH2C6H4C(NH)NH2·HCl], the “Human Plasma Anticoagulation 2x Clotting time (ng/mL) APTT” value with human or animal plasma [1] amounted to 260 ng/mL. The Kd on factor Xa is 0.4 µM; on Human Thrombin it was 0.0333 µM. Besides, in the experiment with human or animal plasma [2], the “Human Plasma Anticoagulation 2x Clotting time (ng/mL) TT” value turned out to be 9 ng/mL. Further, the “Human Plasma Anticoagulation 2x Clotting time (ng/mL) PT” value with human or animal plasma [3] turned out to be 310 ng/mL.
The like results for `N=C(N)c1ccc(CNC(=O)[C@@H]2CCCN2C(=O)[C@@H](CCC2CCCCC2)NCC(=O)O)cc1` [Example 88, HOOCCH2-D-hCha-Pro-p-NHCH2C6H4C(NH)NH2·HCl] were, in that order, 100 ng/mL, 0.256 µM, 0.00244 µM, 4 ng/mL and 200 ng/mL.
The like results for `N=C(N)c1ccc(CNC(=O)CN(CCc2ccccc2)C(=O)CNCC(=O)O)cc1` [Example 89, HOOCCH2-Gly-N-C6H5CH2CH2Gly-p-NHCH2C6H4C(NH)NH2·HCl] were, in that order, 51,000 ng/mL, 14.1 µM, 7.14 µM, 570 ng/mL and 37,000 ng/mL.
On the same counts, the results for `CCC(CC)C(=O)N[C@@H](CCC(=O)O)C(=O)N1CCC[C@H]1C(=O)NCc1ccc(C(=N)N)cc1` [Example 90, (C2H5)2CHCO-Glu-Pro-p-NHCH2C6H4C(NH)NH2·HCl] are 14,500 ng/mL, 500 µM, 1.64 µM, 330 ng/mL and 14,600 ng/mL.
As for `CCC(CC)C(=O)N[C@@H](CCS(C)(=O)=O)C(=O)N1CCC[C@H]1C(=O)NCc1ccc(C(=N)N)cc1` [Example 91, (C2H5)2CHCO-Met(O2)-Pro-p-NHCH2C6H4C(NH)NH2·HCl], the “Human Plasma Anticoagulation 2x Clotting time (ng/mL) APTT” value in the experiment on human or animal plasma [1] is listed as 3,000 ng/mL. For the same compound, the values for the Kd at factor Xa and at Human Thrombin were 143 µM and 0.278 µM, respectively. Besides, the “Human Plasma Anticoagulation 2x Clotting time (ng/mL) TT” value in the experiment with human or animal plasma [2] was found to be 63 ng/mL. The “Human Plasma Anticoagulation 2x Clotting time (ng/mL) PT” value with human or animal plasma [3] was 3,500 ng/mL.
In the case of `CS(=O)(=O)CC(=O)N[C@H](CC1CCCCC1)C(=O)N1CCC[C@H]1C(=O)NCc1ccc(C(=N)N)cc1` [Example 92, MeSO2CH2CO-D-Cha-Pro-p-NHCH2C6H4C(NH)NH2·HCl], in the experiment on human or animal plasma [1], the “Human Plasma Anticoagulation 2x Clotting time (ng/mL) APTT” value is reported as 210 ng/mL. Further, in the experiment with human or animal plasma [2], the “Human Plasma Anticoagulation 2x Clotting time (ng/mL) TT” value worked out at 8.9 ng/mL. Besides, the Kd was 0.13 µM at Trypsin and 0.00769 µM on Human Thrombin. In addition, in the experiment with human or animal plasma [3], the “Human Plasma Anticoagulation 2x Clotting time (ng/mL) PT” value is given as 340 ng/mL.
